Results on 10 compounds are retold here after ChEMBL document CHEMBL2321750, “Structural permutation of potent cytotoxin, polytheonamide B: discovery of cytotoxic Peptide with altered activity” (ACS Med Chem Lett, 2013).

For this test, the system named is P388. Description: Cytotoxicity against mouse P388 cells assessed as cell viability after 92 hrs by XTT assay. It counts as functional, cell-based. As to conditions: P388, 92 h. In general terms: Tetrazolium assays rely on reduction of a dye to a coloured formazan, in cell work by metabolically active cells.

The structures appear in SMILES notation. pIC50: −log10 of the molar value. Bounds are passed on as bounds.

Usually pIC50 stands for the negative decadic logarithm of the IC50, by convention in mol/L. As for `CC[C@H](C)[C@H](NC(=O)[C@@H](CC(=O)NC)NC(=O)CNC(=O)[C@H](NC(=O)[C@@H](NC(=O)[C@@H](CC(=O)NC)NC(=O)[C@@H](NC(=O)[C@@H](CC(=O)NC)NC(=O)CNC(=O)CNC(=O)[C@H](C)NC(=O)[C@H](NC(=O)[C@H](CCC(=O)NC)NC(=O)[C@@H](CC(=O)NC)NC(=O)[C@@H](NC(=O)CNC(=O)[C@H](C)NC(=O)CNC(=O)[C@@H](NC(=O)[C@H](N)CC(=O)NC)C(C)(C)O)C(C)(C)C)C(C)(C)O)[C@@H](C)CC)C(C)(C)C)C(C)(C)O)C(=O)N[C@H](CC(=O)NC)C(=O)N[C@H](C(=O)N[C@H](CC(=O)NC)C(=O)N[C@@H](C)C(=O)N[C@H](CC(=O)NC)C(=O)N[C@H](C(=O)N[C@H](CO)C(=O)N[C@H](C(=O)N[C@H](CC(N)=O)C(=O)N[C@@H](Cc1cn(CCNS(=O)(=O)c2cccc3c(N(C)C)cccc23)nn1)C(=O)N[C@H](CC(N)=O)C(=O)N[C@@H](CCC(N)=O)C(=O)N[C@@H](C(=O)N[C@H](C(=O)O)[C@@H](C)O)[C@H](C)O)C(C)C)C(C)C)C(C)C`, the pIC50 was < 6.38.
Next, `CC[C@H](C)[C@H](NC(=O)[C@@H](CC(=O)NC)NC(=O)CNC(=O)[C@H](NC(=O)[C@@H](NC(=O)[C@@H](CC(=O)NC)NC(=O)[C@@H](NC(=O)[C@@H](CC(=O)NC)NC(=O)CNC(=O)CNC(=O)[C@H](C)NC(=O)[C@H](NC(=O)[C@H](CCC(=O)NC)NC(=O)[C@@H](CC(=O)NC)NC(=O)[C@@H](NC(=O)CNC(=O)[C@H](C)NC(=O)CNC(=O)[C@@H](N)C(C)(C)O)C(C)(C)C)C(C)(C)O)[C@@H](C)CC)C(C)(C)C)C(C)(C)O)C(=O)N[C@H](CC(=O)NC)C(=O)N[C@H](C(=O)N[C@H](CC(=O)NC)C(=O)N[C@@H](C)C(=O)N[C@H](CC(=O)NC)C(=O)N[C@H](C(=O)N[C@H](CO)C(=O)N[C@H](C(=O)N[C@H](CC(N)=O)C(=O)N[C@@H](Cc1cn(CCNS(=O)(=O)c2cccc3c(N(C)C)cccc23)nn1)C(=O)N[C@H](CC(N)=O)C(=O)N[C@@H](CCC(N)=O)C(=O)N[C@@H](C(=O)N[C@H](C(=O)O)[C@@H](C)O)[C@H](C)O)C(C)C)C(C)C)C(C)C`: 6.85; `CC[C@H](C)[C@H](NC(=O)[C@@H](CC(=O)NC)NC(=O)CNC(=O)[C@H](NC(=O)[C@@H](NC(=O)[C@@H](CC(=O)NC)NC(=O)[C@@H](NC(=O)[C@@H](CC(=O)NC)NC(=O)CNC(=O)CNC(=O)[C@H](C)NC(=O)[C@H](NC(=O)[C@H](CCC(=O)NC)NC(=O)[C@H](N)CC(=O)NC)C(C)(C)O)[C@@H](C)CC)C(C)(C)C)C(C)(C)O)C(=O)N[C@H](CC(=O)NC)C(=O)N[C@H](C(=O)N[C@H](CC(=O)NC)C(=O)N[C@@H](C)C(=O)N[C@H](CC(=O)NC)C(=O)N[C@H](C(=O)N[C@H](CO)C(=O)N[C@H](C(=O)N[C@H](CC(N)=O)C(=O)N[C@@H](Cc1cn(CCNS(=O)(=O)c2cccc3c(N(C)C)cccc23)nn1)C(=O)N[C@H](CC(N)=O)C(=O)N[C@@H](CCC(N)=O)C(=O)N[C@@H](C(=O)N[C@H](C(=O)O)[C@@H](C)O)[C@H](C)O)C(C)C)C(C)C)C(C)C`: < 6.60; `CC[C@H](C)[C@H](NC(=O)[C@@H](CC(=O)NC)NC(=O)CNC(=O)[C@H](NC(=O)[C@@H](NC(=O)[C@@H](CC(=O)NC)NC(=O)[C@@H](NC(=O)[C@@H](CC(=O)NC)NC(=O)CNC(=O)CNC(=O)[C@H](C)NC(=O)[C@H](NC(=O)[C@H](CCC(=O)NC)NC(=O)[C@@H](CC(=O)NC)NC(=O)[C@@H](NC(=O)CNC(=O)[C@H](C)N)C(C)(C)C)C(C)(C)O)[C@@H](C)CC)C(C)(C)C)C(C)(C)O)C(=O)N[C@H](CC(=O)NC)C(=O)N[C@H](C(=O)N[C@H](CC(=O)NC)C(=O)N[C@@H](C)C(=O)N[C@H](CC(=O)NC)C(=O)N[C@H](C(=O)N[C@H](CO)C(=O)N[C@H](C(=O)N[C@H](CC(N)=O)C(=O)N[C@@H](Cc1cn(CCNS(=O)(=O)c2cccc3c(N(C)C)cccc23)nn1)C(=O)N[C@H](CC(N)=O)C(=O)N[C@@H](CCC(N)=O)C(=O)N[C@@H](C(=O)N[C@H](C(=O)O)[C@@H](C)O)[C@H](C)O)C(C)C)C(C)C)C(C)C`: 6.72.
The figure for `CC[C@H](C)[C@H](NC(=O)[C@@H](CC(=O)NC)NC(=O)CNC(=O)[C@H](NC(=O)[C@@H](NC(=O)[C@@H](CC(=O)NC)NC(=O)[C@@H](NC(=O)[C@@H](CC(=O)NC)NC(=O)CNC(=O)CNC(=O)[C@H](C)NC(=O)[C@H](NC(=O)[C@@H](N)CCC(=O)NC)C(C)(C)O)[C@@H](C)CC)C(C)(C)C)C(C)(C)O)C(=O)N[C@H](CC(=O)NC)C(=O)N[C@H](C(=O)N[C@H](CC(=O)NC)C(=O)N[C@@H](C)C(=O)N[C@H](CC(=O)NC)C(=O)N[C@H](C(=O)N[C@H](CO)C(=O)N[C@H](C(=O)N[C@H](CC(N)=O)C(=O)N[C@@H](Cc1cn(CCNS(=O)(=O)c2cccc3c(N(C)C)cccc23)nn1)C(=O)N[C@H](CC(N)=O)C(=O)N[C@@H](CCC(N)=O)C(=O)N[C@@H](C(=O)N[C@H](C(=O)O)[C@@H](C)O)[C@H](C)O)C(C)C)C(C)C)C(C)C` is < 6.38; for `CC[C@H](C)[C@H](NC(=O)[C@@H](CC(=O)NC)NC(=O)CNC(=O)[C@H](NC(=O)[C@@H](NC(=O)[C@@H](CC(=O)NC)NC(=O)[C@@H](NC(=O)[C@@H](CC(=O)NC)NC(=O)CNC(=O)CNC(=O)[C@H](C)NC(=O)[C@H](NC(=O)[C@H](CCC(=O)NC)NC(=O)[C@@H](CC(=O)NC)NC(=O)[C@@H](NC(=O)CNC(=O)[C@H](C)NC(=O)CN)C(C)(C)C)C(C)(C)O)[C@@H](C)CC)C(C)(C)C)C(C)(C)O)C(=O)N[C@H](CC(=O)NC)C(=O)N[C@H](C(=O)N[C@H](CC(=O)NC)C(=O)N[C@@H](C)C(=O)N[C@H](CC(=O)NC)C(=O)N[C@H](C(=O)N[C@H](CO)C(=O)N[C@H](C(=O)N[C@H](CC(N)=O)C(=O)N[C@@H](Cc1cn(CCNS(=O)(=O)c2cccc3c(N(C)C)cccc23)nn1)C(=O)N[C@H](CC(N)=O)C(=O)N[C@@H](CCC(N)=O)C(=O)N[C@@H](C(=O)N[C@H](C(=O)O)[C@@H](C)O)[C@H](C)O)C(C)C)C(C)C)C(C)C` it is < 6.35.
The figure for `CC[C@H](C)[C@H](NC(=O)[C@@H](CC(=O)NC)NC(=O)CNC(=O)[C@H](NC(=O)[C@@H](NC(=O)[C@@H](CC(=O)NC)NC(=O)[C@@H](NC(=O)[C@@H](CC(=O)NC)NC(=O)CNC(=O)CNC(=O)[C@H](C)NC(=O)[C@H](NC(=O)[C@H](CCC(=O)NC)NC(=O)[C@@H](CC(=O)NC)NC(=O)[C@@H](NC(=O)CNC(=O)[C@H](C)NC(=O)CNC(=O)[C@@H](NC(=O)[C@@H](CC(=O)NC)NC(=O)[C@H](C)NC(=O)[C@H](NC(=O)[C@H](C)NC(=O)CN)C(C)(C)C)C(C)(C)O)C(C)(C)C)C(C)(C)O)[C@@H](C)CC)C(C)(C)C)C(C)(C)O)C(=O)N[C@H](CC(=O)NC)C(=O)N[C@H](C(=O)N[C@H](CC(=O)NC)C(=O)N[C@@H](C)C(=O)N[C@H](CC(=O)NC)C(=O)N[C@H](C(=O)N[C@H](CO)C(=O)N[C@H](C(=O)N[C@H](CC(N)=O)C(=O)N[C@@H](Cc1cn(CCNS(=O)(=O)c2cccc3c(N(C)C)cccc23)nn1)C(=O)N[C@H](CC(N)=O)C(=O)N[C@@H](CCC(N)=O)C(=O)N[C@@H](C(=O)N[C@H](C(=O)O)[C@@H](C)O)[C@H](C)O)C(C)C)C(C)C)C(C)C` is < 6.38; for `CC[C@H](C)[C@H](NC(=O)[C@@H](CC(=O)NC)NC(=O)CNC(=O)[C@H](NC(=O)[C@@H](NC(=O)[C@@H](CC(=O)NC)NC(=O)[C@@H](NC(=O)[C@@H](CC(=O)NC)NC(=O)CNC(=O)CNC(=O)[C@H](C)NC(=O)[C@H](NC(=O)[C@H](CCC(=O)NC)NC(=O)[C@@H](CC(=O)NC)NC(=O)[C@@H](NC(=O)CN)C(C)(C)C)C(C)(C)O)[C@@H](C)CC)C(C)(C)C)C(C)(C)O)C(=O)N[C@H](CC(=O)NC)C(=O)N[C@H](C(=O)N[C@H](CC(=O)NC)C(=O)N[C@@H](C)C(=O)N[C@H](CC(=O)NC)C(=O)N[C@H](C(=O)N[C@H](CO)C(=O)N[C@H](C(=O)N[C@H](CC(N)=O)C(=O)N[C@@H](Cc1cn(CCNS(=O)(=O)c2cccc3c(N(C)C)cccc23)nn1)C(=O)N[C@H](CC(N)=O)C(=O)N[C@@H](CCC(N)=O)C(=O)N[C@@H](C(=O)N[C@H](C(=O)O)[C@@H](C)O)[C@H](C)O)C(C)C)C(C)C)C(C)C` it is < 6.39; for `CC[C@H](C)[C@H](NC(=O)[C@@H](CC(=O)NC)NC(=O)CNC(=O)[C@H](NC(=O)[C@@H](NC(=O)[C@@H](CC(=O)NC)NC(=O)[C@@H](NC(=O)[C@@H](CC(=O)NC)NC(=O)CNC(=O)CNC(=O)[C@H](C)NC(=O)[C@H](NC(=O)[C@H](CCC(=O)NC)NC(=O)[C@@H](CC(=O)NC)NC(=O)[C@@H](NC(=O)CNC(=O)[C@H](C)NC(=O)CNC(=O)[C@@H](NC(=O)[C@@H](CC(=O)NC)NC(=O)[C@H](C)NC(=O)[C@H](NC(=O)[C@H](C)NC(=O)CNC(=O)[C@H](C)N)C(C)(C)C)C(C)(C)O)C(C)(C)C)C(C)(C)O)[C@@H](C)CC)C(C)(C)C)C(C)(C)O)C(=O)N[C@H](CC(=O)NC)C(=O)N[C@H](C(=O)N[C@H](CC(=O)NC)C(=O)N[C@@H](C)C(=O)N[C@H](CC(=O)NC)C(=O)N[C@H](C(=O)N[C@H](CO)C(=O)N[C@H](C(=O)N[C@H](CC(N)=O)C(=O)N[C@@H](Cc1cn(CCNS(=O)(=O)c2cccc3c(N(C)C)cccc23)nn1)C(=O)N[C@H](CC(N)=O)C(=O)N[C@@H](CCC(N)=O)C(=O)N[C@@H](C(=O)N[C@H](C(=O)O)[C@@H](C)O)[C@H](C)O)C(C)C)C(C)C)C(C)C` it is < 6.38.
For `CC[C@H](C)[C@H](NC(=O)[C@@H](CC(=O)NC)NC(=O)CNC(=O)[C@H](NC(=O)[C@@H](NC(=O)[C@@H](CC(=O)NC)NC(=O)[C@@H](NC(=O)[C@@H](CC(=O)NC)NC(=O)CNC(=O)CNC(=O)[C@H](C)NC(=O)[C@H](NC(=O)[C@H](CCC(=O)NC)NC(=O)[C@@H](CC(=O)NC)NC(=O)[C@@H](N)C(C)(C)C)C(C)(C)O)[C@@H](C)CC)C(C)(C)C)C(C)(C)O)C(=O)N[C@H](CC(=O)NC)C(=O)N[C@H](C(=O)N[C@H](CC(=O)NC)C(=O)N[C@@H](C)C(=O)N[C@H](CC(=O)NC)C(=O)N[C@H](C(=O)N[C@H](CO)C(=O)N[C@H](C(=O)N[C@H](CC(N)=O)C(=O)N[C@@H](Cc1cn(CCNS(=O)(=O)c2cccc3c(N(C)C)cccc23)nn1)C(=O)N[C@H](CC(N)=O)C(=O)N[C@@H](CCC(N)=O)C(=O)N[C@@H](C(=O)N[C@H](C(=O)O)[C@@H](C)O)[C@H](C)O)C(C)C)C(C)C)C(C)C`, the pIC50 was 6.41.
